Assay results as given in ChEMBL document CHEMBL3227988, “Synthesis and antiviral activities of arabinofuranosyl-5-ethylpyrimidine nucleosides. Selective antiherpes activity of 1-(beta-D-arabinofuranosyl)-5-ethyluracil” (J Med Chem, 1979).
Converted amounts (≈) assume the structure as drawn. The source made the active and inactive calls. The calls are words filed in the database; no cut-off is given here.

Assays:
Vaccinia virus [1] = test: Antiviral activity against Vaccinia virus infected in primary rabbit kidney cells assessed as inhibition of virus-induced cytopathogenicity treated immediately after virus adsorption measured 2 to 3 days after virus infection; type: functional; settings: Orthopoxvirus vaccinia
Vaccinia virus [2] = test: Antiviral activity against Vaccinia virus infected in primary rabbit kidney cells assessed as inhibition of virus-induced cytopathogenicity at 200 ug/ml treated immediately after virus adsorption measured 2 to 3 days after virus infection; type: functional, organism-based; settings: Orthopoxvirus vaccinia

Compound `CCc1cn([C@@H]2O[C@H](CO)[C@@H](O)[C@@H]2O)c(=O)nc1N` has an MIC (Vaccinia virus [1]) greater than 200 µg/mL.

`Nc1ccn([C@@H]2O[C@H](CO)[C@@H](O)[C@@H]2O)c(=O)n1` [CYTARABINE] gave an MIC (Vaccinia virus [1]) of 0.02 µg/mL (≈ 0.0822 µM).

With `CCc1cn([C@H]2O[C@H](CO)[C@@H](O)[C@@H]2O)c(=O)nc1N` the inhibition (Vaccinia virus [2]) was “inactive”.

`O=c1ccn([C@@H]2O[C@H](CO)[C@@H](O)[C@@H]2O)c(=O)[nH]1` [ARAURIDINE] was tested, and the MIC (Vaccinia virus [1]) was greater than 200 µg/mL.

Compound `CCc1cn([C@@H]2O[C@H](CO)[C@@H](O)[C@@H]2O)c(=O)[nH]c1=O` has an MIC (Vaccinia virus [1]) greater than 200 µg/mL.

With `CCc1cn([C@H]2O[C@H](CO)[C@@H](O)[C@@H]2O)c(=O)[nH]c1=O` the inhibition (Vaccinia virus [2]) was “inactive”.

With `Cc1cn([C@@H]2O[C@H](CO)[C@@H](O)[C@@H]2O)c(=O)[nH]c1=O` the MIC (Vaccinia virus [1]) was 4 µg/mL (≈ 15.5 µM).
